# Assay results as given in patent publication US6150361A, “Triazineone compounds for treating diseases due to sarcosystis, neospora and toxoplasma” (Bayer Corporation, priority 1998, dated 2000).
# Several values for one entry are separate records, joined by “and”; a condition that tells them apart may be missing. Equal values may be shown once.
# Assays:
# [1] = Drug levels in serum after repeated doses of Toltrazuril in horses; assay type: in vivo; design: unit not given here; details: for AVG drug level in serum, 48 Hrs / AVG drug level in serum, 96 Hrs / AVG drug level in serum, 240 Hrs: group average; for Drug level in serum, 48 Hrs / Drug level in serum, 96 Hrs / Drug level in serum, 240 Hrs: individual horse
# Experimental: (§1) This experiment was conducted in order to determine whether triazineones such as Toltrazuril can pass the blood-brain barrier. Normal horses were divided into three groups of three horses per group. Group 1 horses received Toltrazuril administered orally as a 5% suspension at a dose level of 2.5 mg/Kg. Group 2 horses received Toltrazuril administered orally as a 5% suspension at a dose level of 5.0 mg/Kg. Group 3 horses received Toltrazuril administered orally as a 5% suspension at a dose level of 7.5 mg/Kg. The dosing was repeated daily for 10 days. Blood samples were drawn at 48, 96 and 240 hours and the concentration of Toltrazuril, Toltrazuril sulfoxide and Ponazuril in the serum was measured. Ten days after the start of the treatment (Day 10), a sample of cerebral spinal fluid was removed from each horse and the concentrations of Toltrazuril, Toltrazuril Sulfoxide and Ponazuril were again measured in these samples. The concentrations of Toltrazuril, Toltrazuril Sulfoxide and Ponazuril in the serum and cerebral spinal fluid are reported in TABLES 5a and 5b.
# [2] = Drug levels in cerebral spinal fluid after repeated doses of Toltrazuril in horses; assay type: in vivo; design: Drug level in Cerebral Spinal Fluid, Day 10 / AVG drug level in Cerebral Spinal Fluid, Day 10: unit not given here; details: for AVG drug level in Cerebral Spinal Fluid, Day 10: group average; for Drug level in Cerebral Spinal Fluid, Day 10: individual horse
# Experimental: as §1
# [3] = Toltrazuril 2.5 mg/Kg oral daily for 10 days
# [4] = Toltrazuril 5.0 mg/Kg oral daily for 10 days
# [5] = Toltrazuril 7.5 mg/Kg oral daily for 10 days
smiles,measurement,setting,value
Cc1cc(-n2c(=O)[nH]c(=O)n(C)c2=O)ccc1Oc1ccc(S(=O)(=O)C(F)(F)F)cc1 [Ponazuril],"AVG drug level in serum, 48 Hrs",[1]; [3],1.41
same,"AVG drug level in serum, 96 Hrs",[1]; [3],1.76
same,"AVG drug level in serum, 240 Hrs",[1]; [3],3.00
same,"Drug level in serum, 48 Hrs",[1]; [3],0.29 and 0.24 and 3.70
same,"Drug level in serum, 96 Hrs",[1]; [3],0.99 and 1.15 and 3.13
same,"Drug level in serum, 240 Hrs",[1]; [3],2.61 and 2.36 and 4.04
same,"AVG drug level in serum, 48 Hrs",[1]; [4],0.53
same,"AVG drug level in serum, 96 Hrs",[1]; [4],2.26
same,"AVG drug level in serum, 240 Hrs",[1]; [4],5.02
same,"Drug level in serum, 48 Hrs",[1]; [4],0.48 and 0.63
same,"Drug level in serum, 96 Hrs",[1]; [4],2.09 and 2.03 and 2.66
same,"Drug level in serum, 240 Hrs",[1]; [4],5.44 and 2.03 and 5.61
same,"AVG drug level in serum, 48 Hrs",[1]; [5],2.55
same,"AVG drug level in serum, 96 Hrs",[1]; [5],2.89
same,"AVG drug level in serum, 240 Hrs",[1]; [5],6.58
same,"Drug level in serum, 48 Hrs",[1]; [5],6.35 and 0.78 and 0.52
same,"Drug level in serum, 96 Hrs",[1]; [5],2.69 and 2.89 and 3.09
same,"Drug level in serum, 240 Hrs",[1]; [5],6.31 and 6.37 and 7.06
same,"AVG drug level in Cerebral Spinal Fluid, Day 10",[2]; [3],0.09
same,"Drug level in Cerebral Spinal Fluid, Day 10",[2]; [3],0.09 and 0.07 and 0.11
same,"AVG drug level in Cerebral Spinal Fluid, Day 10",[2]; [4],0.16
same,"Drug level in Cerebral Spinal Fluid, Day 10",[2]; [4],0.12 and 0.14 and 0.21
same,"AVG drug level in Cerebral Spinal Fluid, Day 10",[2]; [5],0.22
same,"Drug level in Cerebral Spinal Fluid, Day 10",[2]; [5],0.23 and 0.17 and 0.27
same,concentration in the cerebral spinal fluid compared with Toltrazuril,[2]; after treatment of horses with Toltrazuril,essentially equivalent to the concentration of Toltrazuril itself
